This passage reports IC50 results from patent publication US11028093B2, “4,6-substituted-pyrazolo[1,5-a]pyrazines as janus kinase inhibitors” (Array BioPharma Inc., priority 2014, dated 2021).

Common to all, as to assay type: biochemical
One assay deals with JAK2 (Homo sapiens (Human), UniProt O60674). The assay is described as follows: JAK2 Inhibition Assay (Omnia kinase fluorescence peptide substrate assay, 1 mM ATP). The source says:
(§1) The assays described in Examples A, B, C and D for the determination of Tyk2, JAK1, JAK2 and JAK3 kinase activity, respectively, utilized the Omnia® Kinase fluorescence peptide substrate-based technology (Invitrogen). The specific components of the assay mixture are described in Examples A, B, C and D. In these assays, Mg^2+ is chelated upon phosphorylation of the Omnia peptide by the kinase to form a bridge between the chelation-enhanced fluorophore Sox and the phosphate, resulting in an increase in fluorescence emission at 485 nm when excited at […]. The reactions were therefore read at excitation 360 nm and emission was measured at 485 nm every 50 seconds for 45 minutes using a PerkinElmer EnVision Multilabel Plate Reader.
(§2) The final buffer conditions for Tyk2, JAK1, JAK2, and JAK3 assays were as follows: 25 mM HEPES, pH 7.4, 10 mM MgCl2, 0.01% Triton X-100 and 1 mM DTT.
(§3) Two-μL aliquots of these were transferred to a fresh plate for a ten-fold intermediate dilution with assay buffer. Five-μL aliquots of the diluted compounds were then transferred to 20-μL of assay mixtures described in Examples A, B, C and D for a final concentration of DMSO of 2%. […] For each plate, percent of control (POC) values were calculated for each well according to the following equation:
(§4) where Xmax=Average Uninhibited Controls • Xmin=Average Background IC50's were estimated from the POC's using a standard 4-parameter logistic model:
(§5) where A=Minimum Y (Bottom Asymptote) • B=Maximum Y (Top Asymptote) • C=EC50 • D=Slope Factor • X=Compound Concentration (nM) • Y=POC
(§6) The IC50 is defined as the concentration of inhibitor at which the POC equals 50 for the fitted curve.
Compounds of Formula I were screened for their ability to inhibit JAK2 using the general enzyme inhibition assay method, in which the assay mixture contained 1 mM ATP, 10 μM Omnia® Y7 peptide (Catalog # IVGN KNZ3071C, Invitrogen Corporation, Carlsbad, Calif.) and 4 nM JAK2 in a total volume of 25 μL. JAK2 was purchased from Invitrogen Corporation, Carlsbad, Calif. (catalog # IVGN PV4288).

The next assay has as its target Human Tyk2 kinase domain (Homo sapiens (Human), UniProt P29597). In words: Tyk2 Inhibition Assay (Omnia kinase fluorescence peptide substrate assay, 1 mM ATP).
Source text: as §1, §2, §3, §4, §5, §6
Compounds of Formula I were screened for their ability to inhibit Tyk2 using the general enzyme inhibition assay method, in which the assay mixture contained 1 mM ATP, 8 μM Omnia® Y12 peptide (Catalog # IVGN KPZ3121C; Invitrogen Corporation, Carlsbad, Calif.) and 1 nM Tyk2 in a total volume of 25 μL. […]

A further assay deals with JAK3 (Homo sapiens (Human), UniProt P52333). In words: JAK3 Inhibition Assay (Omnia kinase fluorescence peptide substrate assay, 1 mM ATP).
Source text: as §1, §2, §3, §4, §5, §6
Compounds of Formula I were screened for their ability to inhibit JAK3 using the general enzyme inhibition assay method, in which the assay mixture contained 1 mM ATP, 10 μM Omnia® Y7 peptide (Catalog # IVGN KNZ3071C, Invitrogen Corporation, Carlsbad, Calif.) and 2 nM JAK3 in a total volume of 25 μL. JAK3 was purchased from Invitrogen Corporation, Carlsbad, Calif. (catalog # IVGN PV4080).

The target of the next assay is JAK1 (Homo sapiens (Human), UniProt P23458). In words: JAK1 Inhibition Assay (Omnia kinase fluorescence peptide substrate assay, 1 mM ATP).
Source text: as §1, §2
Two-μL aliquots of these were transferred to a fresh plate for a ten-fold intermediate dilution with assay buffer. Five-μL aliquots of the diluted compounds were then transferred to 20-μL of assay mixtures described in Examples A, B, C and D for a final concentration of DMSO of 2%. […] For each plate, percent of control (POC) values were calculated for each well according to the following equation: […]

[1] abbreviates: read-out: JAK2 Enzyme IC50 1 mM ATP, 1 mM ATP, averaged IC50 ranges.
[2] abbreviates: read-out: TYK2 Enzyme IC50 1 mM ATP, 1 mM ATP, averaged IC50 ranges.

Read-outs that look alike come from different tables or passages of the source.

Human Tyk2 kinase domain, sequence (P29597 886-1187): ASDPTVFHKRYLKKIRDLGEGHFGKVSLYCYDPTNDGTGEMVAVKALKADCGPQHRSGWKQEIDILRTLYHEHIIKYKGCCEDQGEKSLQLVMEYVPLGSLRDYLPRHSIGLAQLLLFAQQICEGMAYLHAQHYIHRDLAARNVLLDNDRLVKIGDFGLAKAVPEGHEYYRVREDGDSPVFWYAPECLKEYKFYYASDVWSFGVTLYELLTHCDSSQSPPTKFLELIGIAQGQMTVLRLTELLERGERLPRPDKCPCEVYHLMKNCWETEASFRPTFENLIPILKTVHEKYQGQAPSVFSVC
JAK2, sequence (O60674 808-1132): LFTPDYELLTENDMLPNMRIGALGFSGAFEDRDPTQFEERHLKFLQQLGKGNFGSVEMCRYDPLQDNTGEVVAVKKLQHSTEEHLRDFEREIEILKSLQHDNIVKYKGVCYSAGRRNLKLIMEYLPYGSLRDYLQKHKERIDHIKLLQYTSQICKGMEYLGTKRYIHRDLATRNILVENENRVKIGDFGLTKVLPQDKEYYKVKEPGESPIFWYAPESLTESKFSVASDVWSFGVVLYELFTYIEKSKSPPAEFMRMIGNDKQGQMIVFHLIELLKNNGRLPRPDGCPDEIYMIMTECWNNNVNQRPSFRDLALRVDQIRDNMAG
JAK3, sequence (P52333 781-1124): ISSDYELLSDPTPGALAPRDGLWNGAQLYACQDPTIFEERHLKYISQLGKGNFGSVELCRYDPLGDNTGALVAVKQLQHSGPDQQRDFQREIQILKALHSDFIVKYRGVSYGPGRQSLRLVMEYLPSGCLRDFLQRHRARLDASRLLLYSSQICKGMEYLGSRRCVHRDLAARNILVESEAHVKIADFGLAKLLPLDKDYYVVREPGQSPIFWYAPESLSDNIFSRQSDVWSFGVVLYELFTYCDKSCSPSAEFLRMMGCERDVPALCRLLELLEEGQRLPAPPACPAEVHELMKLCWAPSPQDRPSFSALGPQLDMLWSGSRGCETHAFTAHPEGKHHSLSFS
JAK1, sequence (P23458 866-1154): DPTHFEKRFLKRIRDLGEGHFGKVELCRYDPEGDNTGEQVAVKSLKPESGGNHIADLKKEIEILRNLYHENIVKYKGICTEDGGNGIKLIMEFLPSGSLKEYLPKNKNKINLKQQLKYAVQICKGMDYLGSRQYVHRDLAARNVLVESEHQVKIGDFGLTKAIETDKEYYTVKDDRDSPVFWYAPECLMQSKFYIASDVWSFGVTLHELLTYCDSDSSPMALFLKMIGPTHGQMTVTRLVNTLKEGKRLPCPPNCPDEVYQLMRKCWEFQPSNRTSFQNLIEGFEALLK

As a reminder, the IC50 is the concentration that inhibits the measured activity by half. Turning to `CCC(CC)n1cc(-c2nc(-c3cnn(C4CN(S(C)(=O)=O)C4)c3)cn3nccc23)cn1` [Example 37, 6-(1-(1-(methylsulfonyl)azetidin-3-yl)-1H-pyrazol-4-yl)-4-(1-(pentan-3-yl)-1H-pyrazol-4-yl)pyrazolo[1,5-a]pyrazine], the IC50 at JAK2 (setting [1]) is below 10 nM.

In the case of `CCC1(n2cc(-c3nc(-c4cnn(C)c4)cn4nccc34)cn2)CN(S(=O)(=O)C(F)(F)F)C1` [Example 48, 4-(1-(3-ethyl-1-((trifluoromethyl)sulfonyl)azetidin-3-yl)-1H-pyrazol-4-yl)-6-(1-methyl-1H-pyrazol-4-yl)pyrazolo[1,5-a]pyrazine], the IC50 at JAK2 (setting [1]) and on Human Tyk2 kinase domain (setting [2]) was below 10 nM throughout.

As for `CCC(CC)n1cc(-c2nc(-c3cnn([C@H]4CC[C@H](O)CC4)c3)cn3nccc23)cn1` [Example 118, trans-4-(4-(4-(1-(pentan-3-yl)-1H-pyrazol-4-yl)pyrazolo[1,5-a]pyrazin-6-yl)-1H-pyrazol-1-yl)cyclohexanol], the IC50 against JAK3 is 1000 to 10000 nM.

With `CCC(CC)n1cc(-c2nc(-c3cnn([C@H]4CC[C@@H](O)CC4)c3)cn3nccc23)cn1` [Example 121, cis-4-(4-(4-(1-(pentan-3-yl)-1H-pyrazol-4-yl)pyrazolo[1,5-a]pyrazin-6-yl)-1H-pyrazol-1-yl)cyclohexanol], the IC50 at JAK3 is 1000 to 10000 nM.

As to `CCC(CC)n1cc(-c2nc(-c3cnn([C@H]4C[C@@](C)(O)C4)c3)cn3nccc23)cn1` [Example 162, (1s,3 s)-1-methyl-3-(4-(4-(1-(pentan-3-yl)-1H-pyrazol-4-yl)pyrazolo[1,5-a]pyrazin-6-yl)-1H-pyrazol-1-yl)cyclobutanol], on JAK3, the IC50 fell in the range of 1000 to 10000 nM.

As for `CC[C@@H](CC1CC1)n1cc(-c2nc(-c3cnn(C[C@@H](O)CO)c3)cn3nccc23)cn1` [Example 205, (R)-3-(4-(4-(1-((S)-1-cyclopropylbutan-2-yl)-1H-pyrazol-4-yl)pyrazolo[1,5-a]pyrazin-6-yl)-1H-pyrazol-1-yl)propane-1,2-diol], the IC50 lay within 10 to 100 nM against JAK2, 1000 to 10000 nM on JAK3, 100 to 1000 nM at JAK1 and 10 to 100 nM on Human Tyk2 kinase domain.

With “(1s,3s)-3-(4-(4-(1-(pentan- 3-yl)-1H-pyrazol-4- yl)pyrazolo[1,5-a]pyrazin- 6-yl)-1H-pyrazol-1-yl) cyclobutanecarboxamide [Example 168]”, the IC50 at JAK2 (setting [1]) lay in the range of 10 to 100 nM; on JAK3 (read-out: JAK3 Enzyme IC50 1 mM ATP, 1 mM ATP, averaged IC50 ranges), 1000 to 10000 nM; on JAK1 (read-out: JAK1 Enzyme IC50 1 mM ATP, 1 mM ATP, averaged IC50 ranges), 1000 to 10000 nM.

Turning to “(R)-3-(4-(4-(1-((S)-2,2-dimethylcyclopentyl)-1H-pyrazol-4-yl)pyrazolo[1,5-a]pyrazin-6-yl)-1H-pyrazol-1-yl)propane-1,2-diol [Example 95]”, the IC50 at JAK2 (setting [1]) and at Human Tyk2 kinase domain (setting [2]) was 1000 to 10000 nM throughout.
